Data reported in ChEMBL document CHEMBL1201862, “PubChem BioAssay data set” (2004).
The source made the active and inactive calls. For most assays here, no stated cut-off is given here; in the data, actives have a measured EC50 and inactives only a lower limit.

Key:
[1] = target: Intestinal-type alkaline phosphatase (Mus musculus, UniProt P24822); test: PubChem AID 488785; format: functional
[2] = target: T1, Alkaline phosphatase, tissue-nonspecific isozyme (Homo sapiens, UniProt P05186); test: TNAP enzyme inhibition by screening hits, dose response, selectivity assay for mouse IAP inhibitor project, biochemical, human TNAP, uHTS hits (AID 488906); format: functional
T1 sequence (P05186 whole entry): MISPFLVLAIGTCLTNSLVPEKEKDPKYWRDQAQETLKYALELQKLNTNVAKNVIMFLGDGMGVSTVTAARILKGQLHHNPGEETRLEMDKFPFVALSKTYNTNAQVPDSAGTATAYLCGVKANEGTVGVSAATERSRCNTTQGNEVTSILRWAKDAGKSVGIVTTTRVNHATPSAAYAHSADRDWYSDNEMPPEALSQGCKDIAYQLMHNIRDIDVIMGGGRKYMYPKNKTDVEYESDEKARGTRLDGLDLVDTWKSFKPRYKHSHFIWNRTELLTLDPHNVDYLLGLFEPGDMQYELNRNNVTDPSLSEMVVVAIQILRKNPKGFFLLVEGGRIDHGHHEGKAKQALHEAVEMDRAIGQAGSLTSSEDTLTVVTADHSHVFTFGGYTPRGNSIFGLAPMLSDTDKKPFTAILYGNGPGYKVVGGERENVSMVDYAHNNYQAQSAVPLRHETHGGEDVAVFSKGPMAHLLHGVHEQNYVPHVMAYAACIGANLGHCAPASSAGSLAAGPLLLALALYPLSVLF

[3] = target: Intestinal-type alkaline phosphatase (Homo sapiens, UniProt P09923); test: inhibition of human intestinal alkaline phosphatase – biochemical, dose response (AID 488876); format: functional
SUMO E1/E2 = SUMO E1/E2 (Homo sapiens, UniProt P63279+Q9UBE0+Q9UBT2); test: SAR analysis of SUMOylation using HTRF in an in-Vitro dose response assay. [Related pubchem assays (depositor defined):AID2006, AID2011, AID2018, AID2069, AID2658]; format: functional
[4] = target: T2, Voltage-gated N-type calcium channel alpha-1B subunit/Amyloid beta A4 precursor protein-binding family A member 1 (Homo sapiens, UniProt Q00975+Q02410); test: disruptors of Mint-PDZ/N-type channel peptide interaction – biochemical, HTRF, set 2, SAR follow-up (AID 434980); format: functional
[5] = target: T2, Voltage-gated N-type calcium channel alpha-1B subunit/Amyloid beta A4 precursor protein-binding family A member 1; test: disruptors of Mint-PDZ/N-type channel peptide interaction – biochemical, HTRF, SAR follow-up (AID 2489); format: functional
[6] = inhibitors of firefly luciferase expression or activity, dose response, H4 neuroglioma cells, luminescence (AID 1990); format: functional, cell-based
[7] = luciferase reporter signal reduction – luminescence, H4-C neuroglioblastoma cells, dose response (AID 2458); format: functional, cell-based;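 further: H4 neuroglioblastoma cells stably carrying a luciferase reporter gene fusion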
[8] = test system: Streptococcus sp. 'group A'; test: growth inhibition of control SK(-) GAS strain, dose response, counter-screen for streptokinase expression inhibitor project, luminescence, kanamycin, BacTiterGlo, confirmation (AID 1900); format: functional, organism-based
BJ [9] = test: cytotoxicity toward BJ-TERT fibroblasts, dose response, cell-based, RAS-independent, luminescence (AID 1933); format: functional; details: Homo sapiens
cells = format: functional, cell-based
[10] = Luminescence Cell-Based Dose Response HTS to Identify Inhibitors of 5'UTR Stem-Loop Driven Prion Protein mRNA Translation in H4 Neuroglioblastoma Cells. [Related pubchem assays: 1827 (Project Summary), 1813 (Primary HTS)]; format: functional
[11] = inhibitors of SNCA 5'UTR-driven reporter translation, confirmation, H4 neuroglioma cells, luminescence (AID 1988); format: functional, cell-based
BJ [12] = test: cells; format: functional, cell-based, Homo sapiens; details: Homo sapiens, BJ
BJ [13] = test: cytotoxicity toward BJ-TERT-LT-ST fibroblasts, dose response, cell-based, RAS-independent, luminescence (AID 1935); format: functional; details: Homo sapiens;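 further: BJ fibroblasts immortalized with TERT plus LT and ST oncogenes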
[14] = cytotoxicity toward DRD oncogenic fibroblasts, dose response, cell-based, non-viral oncogenic, luminescence (AID 1934); format: functional; details: Homo sapiens
Streptococcus = test: Group A Streptococcus viability loss, dose response, counter-screen for streptokinase expression inhibitor project, luminescence, BacTiterGlo (AID 1915); format: functional, organism-based;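 further: potency for reduction of bacterial viability or growth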
[15] = inhibitors of SNCA 5'UTR-driven translation, confirmation, luminescence, H4 neuroglioblastoma cells, dose confirmation (AID 2454); format: functional, cell-based;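 further: H4 neuroglioblastoma cells carrying an alpha-synuclein 5'UTR luciferase reporter; potency for inhibition of the luciferase signal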
Exodeoxyribonuclease V = Exodeoxyribonuclease V (Escherichia coli (strain K12), UniProt P04993+P07648+P08394); test: E. coli RecBCD inhibitors, dose response, counter-screen for AddAB inhibitor project, absorbance, V66 E. coli, mutant T4 phage (AID 492957); format: functional, cell-based, Escherichia coli str. K-12 substr. MG1655
[16] = target: T3, Short transient receptor potential channel 4 (Mus musculus, UniProt Q9QUQ5); test: mouse TRPC4 channel activators, dose response, cell-based, HEK293 TRPC4/mu-opioid, Fluo-4 calcium (AID 434937); format: functional
T3 sequence (Q9QUQ5 whole entry): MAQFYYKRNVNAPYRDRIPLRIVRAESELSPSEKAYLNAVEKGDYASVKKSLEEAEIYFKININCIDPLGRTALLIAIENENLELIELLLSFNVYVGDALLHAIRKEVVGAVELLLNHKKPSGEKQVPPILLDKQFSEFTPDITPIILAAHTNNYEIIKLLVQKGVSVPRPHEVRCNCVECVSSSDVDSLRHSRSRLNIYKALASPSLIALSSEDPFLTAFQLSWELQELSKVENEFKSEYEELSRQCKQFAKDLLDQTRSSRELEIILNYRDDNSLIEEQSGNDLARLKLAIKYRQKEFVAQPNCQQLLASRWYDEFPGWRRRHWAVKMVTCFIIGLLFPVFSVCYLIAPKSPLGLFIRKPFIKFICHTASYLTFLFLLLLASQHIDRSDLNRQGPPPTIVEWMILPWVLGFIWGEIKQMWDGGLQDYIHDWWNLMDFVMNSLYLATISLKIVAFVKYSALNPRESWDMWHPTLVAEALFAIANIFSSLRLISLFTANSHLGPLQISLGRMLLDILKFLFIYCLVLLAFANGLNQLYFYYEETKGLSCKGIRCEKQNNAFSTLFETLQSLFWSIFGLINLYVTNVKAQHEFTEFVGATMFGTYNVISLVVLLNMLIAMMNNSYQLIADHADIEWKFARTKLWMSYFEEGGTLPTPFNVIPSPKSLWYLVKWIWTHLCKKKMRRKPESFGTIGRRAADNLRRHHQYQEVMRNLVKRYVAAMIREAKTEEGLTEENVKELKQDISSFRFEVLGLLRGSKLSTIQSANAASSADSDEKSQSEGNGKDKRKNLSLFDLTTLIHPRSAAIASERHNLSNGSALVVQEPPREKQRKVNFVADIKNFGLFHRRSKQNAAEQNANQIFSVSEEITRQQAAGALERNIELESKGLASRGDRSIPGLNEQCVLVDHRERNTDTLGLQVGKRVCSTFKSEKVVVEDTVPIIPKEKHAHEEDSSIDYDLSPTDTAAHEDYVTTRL

[17] = cytotoxicity in HEK-293T cells, dose response, cytotoxicity control for TCR NF-kB inhibitor project, luminescence, T-cell screen hits (AID 489026); format: functional, cell-based;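 further: cells exposed to compound about 14 hours before the viability readout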
[18] = Counterscreen for AddAB inhibitors: absorbance-based bacterial cell-based high throughput dose response assay for inhibitors of bacterial viability. [Related pubchem assays (depositor defined):AID435030, AID449728, AID449731, AID488942, AID488955, AID488956]; format: functional
[19] = target: T4, Replicative DNA helicase DnaB (Mycobacterium tuberculosis, UniProt P9WMR3); test: DnaB intein splicing inhibitors, dose response, biochemical, cell-free fluorescence (AID 449749); format: functional
T4 sequence (P9WMR3 whole entry): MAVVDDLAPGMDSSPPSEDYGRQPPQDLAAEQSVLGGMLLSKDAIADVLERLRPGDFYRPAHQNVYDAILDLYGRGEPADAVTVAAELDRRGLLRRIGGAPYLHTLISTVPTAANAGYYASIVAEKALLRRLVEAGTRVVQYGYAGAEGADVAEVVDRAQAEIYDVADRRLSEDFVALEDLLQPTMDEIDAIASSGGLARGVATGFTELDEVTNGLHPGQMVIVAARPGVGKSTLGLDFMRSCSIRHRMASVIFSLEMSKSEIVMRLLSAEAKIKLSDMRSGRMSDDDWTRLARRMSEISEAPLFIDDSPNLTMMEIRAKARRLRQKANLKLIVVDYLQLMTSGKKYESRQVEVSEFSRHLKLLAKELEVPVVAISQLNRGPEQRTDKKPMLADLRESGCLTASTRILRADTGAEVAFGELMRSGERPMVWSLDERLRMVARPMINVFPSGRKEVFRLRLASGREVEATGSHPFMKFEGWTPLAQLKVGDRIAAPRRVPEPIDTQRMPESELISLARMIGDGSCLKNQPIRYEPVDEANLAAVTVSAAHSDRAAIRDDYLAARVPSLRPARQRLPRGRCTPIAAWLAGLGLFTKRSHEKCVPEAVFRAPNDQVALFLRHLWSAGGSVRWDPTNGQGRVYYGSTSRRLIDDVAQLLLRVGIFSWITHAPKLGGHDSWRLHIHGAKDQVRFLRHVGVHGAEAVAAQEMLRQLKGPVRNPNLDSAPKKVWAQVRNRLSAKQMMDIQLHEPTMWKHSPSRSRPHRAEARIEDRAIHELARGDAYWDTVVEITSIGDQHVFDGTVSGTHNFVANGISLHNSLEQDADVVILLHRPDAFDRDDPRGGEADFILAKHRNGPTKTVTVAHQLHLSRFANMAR

Protein RecA = target: T5, Protein RecA (Mycobacterium tuberculosis, UniProt P9WHJ3); test: Fluorescence Cell-Free Homogeneous Dose Retest to Identify Inhibitors of RecA-Intein Splicing Activity. [Related pubchem assays (depositor defined):AID2097, AID2223, AID489010, AID492950]; format: functional
T5 sequence (P9WHJ3 whole entry): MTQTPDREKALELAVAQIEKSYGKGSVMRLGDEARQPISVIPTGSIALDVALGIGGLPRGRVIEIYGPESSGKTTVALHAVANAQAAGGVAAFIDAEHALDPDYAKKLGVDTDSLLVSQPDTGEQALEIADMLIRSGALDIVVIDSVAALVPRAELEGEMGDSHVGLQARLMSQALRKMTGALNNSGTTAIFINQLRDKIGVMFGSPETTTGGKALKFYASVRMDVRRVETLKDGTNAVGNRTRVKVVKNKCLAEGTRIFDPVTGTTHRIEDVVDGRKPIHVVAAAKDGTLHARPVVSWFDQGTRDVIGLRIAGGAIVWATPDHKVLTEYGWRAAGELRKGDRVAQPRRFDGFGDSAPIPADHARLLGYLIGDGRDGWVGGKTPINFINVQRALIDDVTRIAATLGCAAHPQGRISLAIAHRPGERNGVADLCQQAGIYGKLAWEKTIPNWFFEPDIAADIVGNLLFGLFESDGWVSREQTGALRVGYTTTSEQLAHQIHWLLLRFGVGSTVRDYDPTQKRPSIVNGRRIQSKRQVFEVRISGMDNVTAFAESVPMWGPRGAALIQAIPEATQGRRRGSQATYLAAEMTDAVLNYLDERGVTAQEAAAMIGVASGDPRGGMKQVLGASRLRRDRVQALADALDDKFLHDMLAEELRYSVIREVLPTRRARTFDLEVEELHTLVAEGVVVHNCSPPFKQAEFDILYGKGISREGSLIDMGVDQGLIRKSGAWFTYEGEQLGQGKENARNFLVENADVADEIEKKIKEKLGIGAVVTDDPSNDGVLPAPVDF

[20] = NIH-3T3 fibroblast cytotoxicity, dose response, cytotoxicity control, cell-based, fluorescence, Alamar Blue, secondary assay (AID 2327); format: functional;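 further: NIH-3T3 mouse fibroblasts cultured with fluconazole at 8 µg/mL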
[21] = target: G-protein coupled receptor 35 (Homo sapiens, UniProt Q9HC97); test: GPR35 antagonists blocking zaprinast-driven arrestin recruitment, primary screen, imaging, U2OS, beta-arrestin-GFP, zaprinast agonist (AID 2058); format: functional;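 further: antagonist potency meaning inhibition of agonist-induced arrestin redistribution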
[22] = C. albicans growth with fluconazole, confirmation, fluorescence, retest (AID 2467); format: functional, cell-based
[23] = inhibitors of intracellular T. cruzi replication, confirmation, NIH3T3 host cells, beta-gal luminescence (AID 2044); format: functional, cell-based;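 further: intracellular parasites grown in NIH/3T3 mouse fibroblasts as host cells; luminescent beta-galactosidase reporter signal from transgenic T. cruzi replicating inside host cells; inhibitors lower the luminescence signal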
[24] = cytotoxicity toward NIH3T3 fibroblasts, dose response, counter-screen, cell-based, ATP luminescence, mouse fibroblasts (AID 2010); format: functional;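 further: cells exposed to compound for about 90 hours before reading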
[25] = target: G-protein coupled receptor 55 (Homo sapiens, UniProt Q9Y2T6); test: GPR55 antagonists, SAR follow-up, counter-screen for GPR35 antagonist project, imaging, image-based (AID 2397); format: functional
G-protein coupled receptor 55, sequence (Q9Y2T6 whole entry): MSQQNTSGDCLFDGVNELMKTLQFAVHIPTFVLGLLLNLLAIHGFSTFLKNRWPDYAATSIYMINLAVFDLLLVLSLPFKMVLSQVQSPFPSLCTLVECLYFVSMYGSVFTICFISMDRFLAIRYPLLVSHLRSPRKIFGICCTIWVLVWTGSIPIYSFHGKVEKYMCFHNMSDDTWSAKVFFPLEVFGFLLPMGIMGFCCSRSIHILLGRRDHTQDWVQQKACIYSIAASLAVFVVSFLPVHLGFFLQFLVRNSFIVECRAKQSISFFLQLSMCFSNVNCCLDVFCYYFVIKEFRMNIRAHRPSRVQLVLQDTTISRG

T2 sequence (Q00975 whole entry): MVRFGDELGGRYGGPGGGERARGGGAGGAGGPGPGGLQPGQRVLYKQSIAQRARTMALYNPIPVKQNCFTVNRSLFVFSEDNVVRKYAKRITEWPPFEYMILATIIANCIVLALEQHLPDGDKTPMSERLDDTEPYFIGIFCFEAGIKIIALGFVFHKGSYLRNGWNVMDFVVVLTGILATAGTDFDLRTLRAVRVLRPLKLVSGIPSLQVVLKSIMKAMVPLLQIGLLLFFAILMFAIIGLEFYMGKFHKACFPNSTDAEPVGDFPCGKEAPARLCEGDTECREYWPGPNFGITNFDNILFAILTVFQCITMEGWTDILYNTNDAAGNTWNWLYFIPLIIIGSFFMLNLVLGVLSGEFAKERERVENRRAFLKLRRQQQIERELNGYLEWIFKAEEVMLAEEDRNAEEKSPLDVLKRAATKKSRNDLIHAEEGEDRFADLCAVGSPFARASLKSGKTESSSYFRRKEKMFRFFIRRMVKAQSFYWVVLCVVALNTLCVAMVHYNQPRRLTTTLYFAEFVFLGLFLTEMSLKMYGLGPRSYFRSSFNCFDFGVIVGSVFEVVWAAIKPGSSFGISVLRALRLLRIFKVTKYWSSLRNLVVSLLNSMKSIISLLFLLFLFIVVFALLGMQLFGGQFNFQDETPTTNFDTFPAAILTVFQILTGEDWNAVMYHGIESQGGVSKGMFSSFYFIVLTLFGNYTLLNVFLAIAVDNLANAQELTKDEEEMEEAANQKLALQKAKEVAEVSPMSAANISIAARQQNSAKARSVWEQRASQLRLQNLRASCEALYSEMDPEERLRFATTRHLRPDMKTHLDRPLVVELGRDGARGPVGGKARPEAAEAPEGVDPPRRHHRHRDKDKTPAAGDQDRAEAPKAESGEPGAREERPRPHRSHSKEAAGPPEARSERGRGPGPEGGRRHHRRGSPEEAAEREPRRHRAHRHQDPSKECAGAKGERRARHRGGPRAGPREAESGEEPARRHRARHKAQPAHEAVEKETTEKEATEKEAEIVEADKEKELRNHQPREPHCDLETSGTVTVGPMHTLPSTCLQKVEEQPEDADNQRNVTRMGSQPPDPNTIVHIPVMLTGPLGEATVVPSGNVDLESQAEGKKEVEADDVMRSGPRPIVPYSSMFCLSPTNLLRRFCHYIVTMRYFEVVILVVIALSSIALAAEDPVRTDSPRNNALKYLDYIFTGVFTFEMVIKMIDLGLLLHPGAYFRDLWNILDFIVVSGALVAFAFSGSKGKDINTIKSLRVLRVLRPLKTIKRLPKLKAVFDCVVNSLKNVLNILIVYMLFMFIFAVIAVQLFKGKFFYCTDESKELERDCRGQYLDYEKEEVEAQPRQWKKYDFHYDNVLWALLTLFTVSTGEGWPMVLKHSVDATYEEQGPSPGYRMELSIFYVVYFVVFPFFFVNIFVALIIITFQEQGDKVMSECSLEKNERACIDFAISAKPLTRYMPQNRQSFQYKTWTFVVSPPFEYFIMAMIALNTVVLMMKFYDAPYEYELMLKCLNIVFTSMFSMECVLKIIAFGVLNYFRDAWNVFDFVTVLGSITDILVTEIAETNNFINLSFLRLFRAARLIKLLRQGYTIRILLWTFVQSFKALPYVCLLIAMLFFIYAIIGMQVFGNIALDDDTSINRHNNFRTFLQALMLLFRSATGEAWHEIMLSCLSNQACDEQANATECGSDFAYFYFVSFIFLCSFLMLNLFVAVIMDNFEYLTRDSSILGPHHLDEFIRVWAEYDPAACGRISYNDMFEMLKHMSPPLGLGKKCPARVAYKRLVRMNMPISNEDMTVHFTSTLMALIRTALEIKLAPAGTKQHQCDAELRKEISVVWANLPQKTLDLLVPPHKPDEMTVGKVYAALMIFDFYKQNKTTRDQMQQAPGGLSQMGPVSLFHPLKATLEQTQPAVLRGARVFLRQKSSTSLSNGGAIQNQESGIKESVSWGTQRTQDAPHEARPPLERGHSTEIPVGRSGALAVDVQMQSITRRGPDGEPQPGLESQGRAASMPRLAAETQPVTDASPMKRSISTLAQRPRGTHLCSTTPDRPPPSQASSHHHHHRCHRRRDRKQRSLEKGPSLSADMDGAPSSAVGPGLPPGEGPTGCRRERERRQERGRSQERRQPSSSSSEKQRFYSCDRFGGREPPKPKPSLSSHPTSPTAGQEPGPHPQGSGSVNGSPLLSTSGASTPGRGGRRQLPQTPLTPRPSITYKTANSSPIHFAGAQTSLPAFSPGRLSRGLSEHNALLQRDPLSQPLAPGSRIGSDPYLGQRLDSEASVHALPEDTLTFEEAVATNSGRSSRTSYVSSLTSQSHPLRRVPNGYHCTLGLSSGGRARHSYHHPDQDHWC
T2 sequence (Q02410 whole entry): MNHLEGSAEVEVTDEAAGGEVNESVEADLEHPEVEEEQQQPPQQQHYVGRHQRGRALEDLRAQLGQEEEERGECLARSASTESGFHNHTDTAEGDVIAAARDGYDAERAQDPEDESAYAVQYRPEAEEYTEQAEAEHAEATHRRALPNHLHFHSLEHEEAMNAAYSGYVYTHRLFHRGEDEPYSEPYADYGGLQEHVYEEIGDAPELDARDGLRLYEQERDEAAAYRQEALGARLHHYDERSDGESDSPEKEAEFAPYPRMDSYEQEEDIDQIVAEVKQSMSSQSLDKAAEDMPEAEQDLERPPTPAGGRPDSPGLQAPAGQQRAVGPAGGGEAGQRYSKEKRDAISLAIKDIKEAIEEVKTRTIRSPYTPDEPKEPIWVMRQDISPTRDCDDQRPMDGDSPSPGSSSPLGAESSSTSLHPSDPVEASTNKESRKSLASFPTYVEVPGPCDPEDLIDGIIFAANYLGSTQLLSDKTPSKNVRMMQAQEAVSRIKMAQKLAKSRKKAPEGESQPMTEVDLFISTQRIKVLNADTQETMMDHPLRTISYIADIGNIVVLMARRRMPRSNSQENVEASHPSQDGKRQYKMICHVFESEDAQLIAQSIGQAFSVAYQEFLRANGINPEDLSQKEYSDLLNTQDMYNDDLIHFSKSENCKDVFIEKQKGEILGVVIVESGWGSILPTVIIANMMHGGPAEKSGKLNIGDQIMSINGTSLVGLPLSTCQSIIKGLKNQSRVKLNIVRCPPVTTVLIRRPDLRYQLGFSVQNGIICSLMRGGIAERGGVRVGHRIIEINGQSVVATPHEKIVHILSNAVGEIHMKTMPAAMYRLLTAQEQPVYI
SUMO E1/E2, sequence (Q9UBE0 whole entry): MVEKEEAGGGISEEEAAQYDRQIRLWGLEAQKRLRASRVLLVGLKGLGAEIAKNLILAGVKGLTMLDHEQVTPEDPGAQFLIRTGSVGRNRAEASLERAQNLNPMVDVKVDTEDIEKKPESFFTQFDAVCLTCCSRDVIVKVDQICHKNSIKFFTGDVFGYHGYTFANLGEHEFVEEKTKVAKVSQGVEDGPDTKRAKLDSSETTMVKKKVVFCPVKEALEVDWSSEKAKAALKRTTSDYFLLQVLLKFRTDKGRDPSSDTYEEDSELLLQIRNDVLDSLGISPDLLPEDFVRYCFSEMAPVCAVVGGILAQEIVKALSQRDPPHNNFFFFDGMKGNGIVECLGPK
SUMO E1/E2, sequence (Q9UBT2 whole entry): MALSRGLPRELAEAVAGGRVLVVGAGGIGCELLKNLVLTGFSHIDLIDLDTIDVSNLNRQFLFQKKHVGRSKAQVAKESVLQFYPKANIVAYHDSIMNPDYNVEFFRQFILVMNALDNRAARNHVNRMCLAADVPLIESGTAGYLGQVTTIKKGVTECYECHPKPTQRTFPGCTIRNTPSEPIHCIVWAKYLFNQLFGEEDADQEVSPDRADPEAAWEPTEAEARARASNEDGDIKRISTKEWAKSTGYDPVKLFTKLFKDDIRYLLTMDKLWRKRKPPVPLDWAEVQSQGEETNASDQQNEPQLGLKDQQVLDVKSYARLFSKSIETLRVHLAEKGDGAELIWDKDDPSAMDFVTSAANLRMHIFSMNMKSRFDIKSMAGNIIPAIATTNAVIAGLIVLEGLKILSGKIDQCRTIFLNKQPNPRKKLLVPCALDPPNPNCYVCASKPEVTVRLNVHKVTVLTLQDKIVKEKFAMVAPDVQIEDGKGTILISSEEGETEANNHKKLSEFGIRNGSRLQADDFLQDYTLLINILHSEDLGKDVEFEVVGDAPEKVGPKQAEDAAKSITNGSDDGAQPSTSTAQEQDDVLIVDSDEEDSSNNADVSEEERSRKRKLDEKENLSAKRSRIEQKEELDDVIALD
SUMO E1/E2, sequence (P63279 whole entry): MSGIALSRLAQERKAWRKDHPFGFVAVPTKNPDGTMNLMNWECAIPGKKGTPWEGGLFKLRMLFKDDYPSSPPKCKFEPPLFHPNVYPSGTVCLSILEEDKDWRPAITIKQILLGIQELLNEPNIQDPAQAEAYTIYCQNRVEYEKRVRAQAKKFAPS
G-protein coupled receptor 35, sequence (Q9HC97 whole entry): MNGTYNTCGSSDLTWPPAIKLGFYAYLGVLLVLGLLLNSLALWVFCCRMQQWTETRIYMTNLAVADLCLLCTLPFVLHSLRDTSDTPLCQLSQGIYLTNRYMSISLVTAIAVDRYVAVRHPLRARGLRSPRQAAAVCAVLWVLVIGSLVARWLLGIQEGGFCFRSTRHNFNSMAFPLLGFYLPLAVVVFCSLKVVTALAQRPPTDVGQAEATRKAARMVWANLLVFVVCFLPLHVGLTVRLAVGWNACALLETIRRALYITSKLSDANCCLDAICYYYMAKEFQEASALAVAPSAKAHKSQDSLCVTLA

## S=C(NCc1ccccc1)NC1CCSc2ccccc21 (stereo not given)
[1]
  IC50: 3.3 µM (active)
[2]
  IC50: 45.5 µM (active)
[3]
  IC50: 60.7 µM (active)

## O=C(COC(=O)c1cc(-c2ccco2)nc2ccccc12)NCc1cccc(Cl)c1
SUMO E1/E2
  IC50: 4.63 µM (active)
[4]
  IC50: 30.7 µM (active)
[5]
  IC50: 23.7 µM (active)

## Cc1ccc(C[n+]2c(-c3ccc(C)cc3)cc(-c3ccc(C)cc3)cc2-c2ccc(C)cc2)cc1.[O-][Cl+3]([O-])([O-])[O-]
[6]
  EC50: < 0.1 µM (active)
[7]
  EC50: 1.62 µM (active)
[8]
  EC50: 3.71 µM (active)
BJ [9]
  EC50: 1.07 µM (inconclusive)
cells
  EC50: 3.46 µM (active)
[10]
  EC50: 4.41 µM (active)
[11]
  EC50: < 0.1 µM (active)
BJ [12]
  EC50: 1.23 µM (inconclusive)
BJ [13]
  EC50: 2.7 µM (inconclusive)
[14]
  EC50: 1.31 µM (active)
Streptococcus
  EC50: 7.91 µM (active)
[15]
  EC50: 0.793 µM (active)
Exodeoxyribonuclease V
  IC50: 20.1 µM (inactive)
[16]
  EC50: 5.31 µM (active)
[17]
  IC50: 25.9 µM (inactive)
[18]
  IC50: 18.5 µM (inactive)
[19]
  AC50: 3.61 µM (active)
Protein RecA
  EC50: 8.2 µM (active)

## Cc1ccc2[nH]c(C)c(/C=C/c3cc[n+](C)cc3)c2c1
[20]
  EC50: > 150 µM (inactive)
[21]
  IC50: 1.62 µM (active)
[22]
  EC50: 1.45 µM (active)
[23]
  EC50: 0.725 µM (active)
[24]
  EC50: > 30 µM (not active)
[25]
  IC50: 1.57 µM (active)
